Experimental data published in US20240316136A1, “ANESTHETIC METHOD OF SPOTTED SEABASS WITH PLANT ESSENTIAL OILS” (Shanghai Ocean University, priority 2024, published 2024).

Key:
Type in all cases: in vivo, Lateolabrax maculatus
[1] = system: spotted seabass gill tissue; assay: Gill tissue histopathology by light microscope after anesthesia
Method: • 1. Healthy spotted seabass with uniform sizes and uniform respiration rates were selected and acclimated for 24 h. During the acclimatization period, the water temperature was 22±1° C., the salinity was 16%, the dissolved oxygen was 6 mg/L, pH was 7.5, and the fish-water ratio was 1:50. The metabolic wastes of the spotted seabass were discharged during acclimatization period. • 2. The emulsified Cinnamomum camphora essential oils were added to the aquariums respectively. The water temperature was controlled at 22±1° C. The concentrations of the emulsified Cinnamomum camphora essential oil were 10, 20, 30, 50, 100, 150, 200 mg/L, respectively, and the same concentrations of MS-222 anesthesia solution and linalool solution were prepared at the same time. • 3. The spotted seabass were transferred to aquariums (5 fish per aquarium) with different concentrations of the Cinnamomum camphora essential oil, MS-222 and linalool anesthetics, and anesthetic concentrations, sedation concentrations and duration of anesthesia were recorded for the spotted seabass. • 4. The fish were extracted once deep anesthesia was achieved. Recovery was defined as the restoration of fish to their typical swimming behavior; the resuscitation time of the spotted seabass were recorded. • 5. The optimal concentration range was obtained, and oxidative stress and tissue injury were measured. […]

spotted seabass [2] = assay: Energy metabolism indexes (glucose, lactic acid); conditions: after anesthesia; comparison between anesthetic groups, P<0.05
Method: (§1) In accordance with the principles and guiding regulations established by the Animal Protection and Utilization Committee of Shanghai Ocean University (SHOU-DW-2022-059), 200 mg/L MS-222 was used to anesthetize fish. Venous-arterial blood samples were obtained from the caudal vein using a 1 mL syringe with 10% EDTA as an anticoagulant and then preserved in anticoagulation tubes. In addition, another portion of the blood was collected without anticoagulant, then kept at 4° C. for a duration of 12 hours for stationary. The coagulated blood was centrifuged at 4000×g for 20 min at 4° C. The serum was extracted and placed in the refrigerator at −40° C. for testing.
(§2) Acid phosphatase (ACP), glucose (GLU) and lactic acid (LD) kits (Nanjing Jiancheng Bioengineering Institute, Nanjing, China) were used to measure ACP, GLU and LD levels.

spotted seabass [3] = assay: Oxidative stress indicators (SOD, CAT, GSH-Px) in blood
Method: as §1
Superoxide Dismutase (SOD), Catalase (CAT) and Glutathione Peroxidase (GSH-Px) kits (Nanjing Jiancheng Bioengineering Institute, Nanjing, China) were used to determine SOD, CAT and GSH-Px activities in blood.

spotted seabass [4] = assay: Immunological indicators (ACP/AKP, IgM, LZM) in serum
Method: as §1, §2
Lysozyme (LZM) activity was determined by the method of De Souza et al. Serum immunoglobulin M (IgM) concentration was measured using a fish ELISA kit (Nanjing Jiancheng Bioengineering Institute, Nanjing, China).

spotted seabass [5] = assay: Blood biochemical analysis (RBC, HCT, HGB)
Method: as §1
Red blood cell count (RBC), haematocrit (HCT), and hemoglobin (HGB) in blood samples were measured in a Myriad Veterinary Automatic Blood Cell Analyser (BC-2800vet, Shenzhen, China).

spotted seabass [6] = assay: Sedation, anesthesia induction and resuscitation time of spotted seabass in anesthetic bath; design: key to Stage IV (deep anesthesia) time / Resuscitation time / Stage I (light sedation) time / Stage II (deep sedation) time / Stage III (light anesthesia) time: —: No anesthetic effect
Method: • 1. Healthy spotted seabass with uniform sizes and uniform respiration rates were selected and acclimated for 24 h. During the acclimatization period, the water temperature was 22±1° C., the salinity was 16%, the dissolved oxygen was 6 mg/L, pH was 7.5, and the fish-water ratio was 1:50. The metabolic wastes of the spotted seabass were discharged during acclimatization period. • 2. The emulsified Cinnamomum camphora essential oils were added to the aquariums respectively. The water temperature was controlled at 22±1° C. […] The spotted seabass were transferred to aquariums (5 fish per aquarium) with different concentrations of the Cinnamomum camphora essential oil, MS-222 and linalool anesthetics, and anesthetic concentrations, sedation concentrations and duration of anesthesia were recorded for the spotted seabass. • 4. The fish were extracted once deep anesthesia was achieved. Recovery was defined as the restoration of fish to their typical swimming behavior; the resuscitation time of the spotted seabass were recorded. • 5. The optimal concentration range was obtained, and oxidative stress and tissue injury were measured. [table] One-way analysis of variance (ANOVA) was used to evaluate the data (anesthetic induction and recovery time) using SPSS 26.0 software (SPSS Inc., Chicago, IL, USA). The significant variation was determined using Duncan's multiple range test (P<0.05). Graphs were created using Origin software.

[7] = after 24 h of recovery, vs initial
[8] = after 24 h of recovery, vs initial values, p<0.05

Glucose concentration (spotted seabass [2]): Greater
CAT activity (spotted seabass [3]; [7]): recovered to the initial values
SOD activity (spotted seabass [3]; [7]): recovered to the initial values
SOD, CAT and GSH-Px activities (spotted seabass [3]; after anesthesia): increasing trend
IgM concentration (spotted seabass [4]; after anesthesia): decreased
LZM activity (spotted seabass [4]; after anesthesia, change from initial): decreased
AKP activity (spotted seabass [4]; on exposure to anesthetic): increased
Percentage of hematocrit (spotted seabass [5]; [8]): lower
Red blood cell count (RBC) (spotted seabass [5]; [8]): higher
Percentage of hematocrit (spotted seabass [5]; after deep anesthesia, comparison between anesthetic groups, p<0.05): higher
Hemoglobin concentration (spotted seabass [5]; in vivo): higher
Red blood cell count (RBC) (spotted seabass [5]; in vivo): higher
SMILES: CCOC(=O)c1cccc(N)c1.CS(=O)(=O)O [MS-222, tricaine methanesulfonate]
Gill tissue histopathological changes [1]: chloride cells underwent significant proliferation
Resuscitation time (spotted seabass [6]; 5 mg/L in water): —
Stage I (light sedation) time (spotted seabass [6]; 5 mg/L in water): —
Stage II (deep sedation) time (spotted seabass [6]; 5 mg/L in water): —
Stage III (light anesthesia) time (spotted seabass [6]; 5 mg/L in water): —
Stage IV (deep anesthesia) time (spotted seabass [6]; 5 mg/L in water): —
Resuscitation time (spotted seabass [6]; 10 mg/L in water): —
Stage I (light sedation) time (spotted seabass [6]; 10 mg/L in water): 90.67 ± 2.08 s
Stage II (deep sedation) time (spotted seabass [6]; 10 mg/L in water): —
Stage III (light anesthesia) time (spotted seabass [6]; 10 mg/L in water): —
Stage IV (deep anesthesia) time (spotted seabass [6]; 10 mg/L in water): —
Resuscitation time (spotted seabass [6]; 20 mg/L in water): —
Stage I (light sedation) time (spotted seabass [6]; 20 mg/L in water): 73.67 ± 5.86 s
Stage II (deep sedation) time (spotted seabass [6]; 20 mg/L in water): 111.67 ± 2.08 s
Stage III (light anesthesia) time (spotted seabass [6]; 20 mg/L in water): —
Stage IV (deep anesthesia) time (spotted seabass [6]; 20 mg/L in water): —
Resuscitation time (spotted seabass [6]; 30 mg/L in water): —
Stage I (light sedation) time (spotted seabass [6]; 30 mg/L in water): 59.00 ± 3.00 s
Stage II (deep sedation) time (spotted seabass [6]; 30 mg/L in water): 102.33 ± 2.52 s
Stage III (light anesthesia) time (spotted seabass [6]; 30 mg/L in water): 122.67 ± 2.52 s
Stage IV (deep anesthesia) time (spotted seabass [6]; 30 mg/L in water): —
Resuscitation time (spotted seabass [6]; 50 mg/L in water): 217.00 ± 2.00 s
Stage I (light sedation) time (spotted seabass [6]; 50 mg/L in water): 39.67 ± 2.52 s
Stage II (deep sedation) time (spotted seabass [6]; 50 mg/L in water): 64.00 ± 3.61 s
Stage III (light anesthesia) time (spotted seabass [6]; 50 mg/L in water): 83.00 ± 3.00 s
Stage IV (deep anesthesia) time (spotted seabass [6]; 50 mg/L in water): 185.00 ± 4.36 s
Resuscitation time (spotted seabass [6]; 100 mg/L in water): 240.00 ± 2.00 s
Stage I (light sedation) time (spotted seabass [6]; 100 mg/L in water): 30.00 ± 3.00 s
Stage II (deep sedation) time (spotted seabass [6]; 100 mg/L in water): 41.00 ± 4.58 s
Stage III (light anesthesia) time (spotted seabass [6]; 100 mg/L in water): 70.67 ± 4.04 s
Stage IV (deep anesthesia) time (spotted seabass [6]; 100 mg/L in water): 174.00 ± 4.58 s
Resuscitation time (spotted seabass [6]; 150 mg/L in water): 290.33 ± 3.06 s
Stage I (light sedation) time (spotted seabass [6]; 150 mg/L in water): 20.67 ± 2.52 s
Stage II (deep sedation) time (spotted seabass [6]; 150 mg/L in water): 35.00 ± 2.00 s
Stage III (light anesthesia) time (spotted seabass [6]; 150 mg/L in water): 63.00 ± 3.61 s
Stage IV (deep anesthesia) time (spotted seabass [6]; 150 mg/L in water): 147.67 ± 2.52 s
Resuscitation time (spotted seabass [6]; 200 mg/L in water): 349.33 ± 3.06 s
Stage I (light sedation) time (spotted seabass [6]; 200 mg/L in water): 19.67 ± 2.52 s
Stage II (deep sedation) time (spotted seabass [6]; 200 mg/L in water): 29.67 ± 2.52 s
Stage III (light anesthesia) time (spotted seabass [6]; 200 mg/L in water): 55.33 ± 2.08 s
Stage IV (deep anesthesia) time (spotted seabass [6]; 200 mg/L in water): 140.33 ± 2.08 s
Optimal anesthetic concentration (spotted seabass [6]; criterion: induction in around 3 min and recovery within 5 min): 100 mg/L
Concentration showing deep sedation (spotted seabass [6]; in vivo): 20 mg/L
Concentration showing light anesthesia effect (Stage III) (spotted seabass [6]; in vivo): 30 mg/L
Concentration showing light sedation effect (Stage I) (spotted seabass [6]; in vivo): 10 mg/L
Minimum concentration required to achieve profound anesthesia (Stage IV) (spotted seabass [6]; in vivo, iv): 50 mg/L
